US10653676B2 (Dana-Farber Cancer Institute, Inc., priority 2010, dated 2020)
Read-outs that look alike come from different tables or passages of the source.

What was measured:
USP1/UAF1 complex [1] = target: T1, USP1/UAF1 complex (Homo sapiens, UniProt O94782, G670A/G671A); experiment: ubiquitin-AMC in vitro deubiquitination enzyme assay; assay type: biochemical
T1 construct: This modified full length USP1 clone was PCR amplified and subcloned into pFastBac-HT vectors; His tag (N); made in house; host or cells: Sf9 insect cells (baculovirus)
Description: Purified USP1/UAF1 complex was incubated with 1 μM C527 or DMSO for indicated time, followed by the addition of Ub-AMC at 0.5 μM final concentration. The fluorescence at […] was measured to indicate the enzymatic activity of USP1. […] 5A.
The in vitro enzymatic assays were performed using purified proteins from Sf9 cells as described previously (Cohn et al.). The assays using ubiquitin-AMC (Ub-7-amido-4-methylcoumarin; Boston Biochem) as substrate was carried out in a reaction buffer containing 20 mM HEPES-KOH (pH 7.8), 20 mM NaCl, 0.1 mg/ml ovalbumin, 0.5 mM EDTA and 10 mM dithiothreitol. The fluorescence was measured by FluoStar Galaxy Fluorometer (BMG Labtech). For the Ub-vinylsulfone (VS) assay, the proteins were incubated with Ub-VS at 0.5 μM final concentration for 1 h at 30° C., followed by the immunoblotting analysis.
In order to develop a highly sensitive assay with easy readout for high throughput detection, the fluorogenic compound Ubiquitin-7-amido-4-methylcoumarin (AMC-Ub, Boston Biochem) was used as a substrate for USP1/UAF1 enzyme complex. USP1 catalyzes the cleavage of AMC-Ub, releasing free AMC moiety, which leads to increase in fluorescence emission at 460 nm (λex=380 nm). Dang et al. (1998) Biochemistry 37:1868-79. […] Initial enzyme assay development was performed in 96-well plates with 100 μl reaction volume containing 20 mM HEPES-KOH, 0.1 mg/ml ovalbumin (Sigma), 0.5 mM EDTA, and 10 mM DTT. 2.5 nM USP1/UAF1 enzyme complex was mixed with the reaction buffer, incubated at 37° C. for 10 minutes and then 0.3 μM AMC-Ub was added. Fluorescence was measured using a Fluostar Galaxy Fluorometer (BMG Labtech Inc.).
Hits from the initial screening were analyzed further in secondary screening. In this step, the compounds were re-tested for inhibition using the AMC-Ub in vitro enzyme assay. After reconfirming inhibition, different concentration range of the inhibitors were tested to show dose dependency of inhibition and IC50 calculation.

USP1/UAF1 complex [2] = target: T1, USP1/UAF1 complex; experiment: high throughput screening for inhibitors of USP1 deubiquitinating activity; assay type: biochemical; details: library of approximately 150,000 compounds
Description: The ubiquitin-Rho based enzyme assay for high throughput screening was established in a 384-well format. The reaction buffer containing and USP1/UAF1 complex were added in 384 well plates using automated liquid handling robot-Bio-Tek Microfill (Bio-Tek Instrments Inc., VT), followed by addition of the compounds (in DMSO) from the compound library plates to wells using a pin transfer robotic system at a final concentration of 10 μM. The reaction was composed of 0.1 nM purified USP1/UAF complex, 75 nM ubiquitin Rhodamine (Ub-Rho, Boston Biochem, U-600) and 2 μM ubiquitin. Fluorescence was monitored in a FluoStar Galaxy Fluorometer (BMG Labtech). Fluorescence emission at 535 nm (λex=485 nm) was measured in an automated plate reader Envision 2 (Perkin Elmer, Mass.).
In order to develop a highly sensitive assay with easy readout for high throughput detection, the fluorogenic compound Ubiquitin-7-amido-4-methylcoumarin (AMC-Ub, Boston Biochem) was used as a substrate for USP1/UAF1 enzyme complex. USP1 catalyzes the cleavage of AMC-Ub, releasing free AMC moiety, which leads to increase in fluorescence emission at 460 nm (λex=380 nm). Dang et al. (1998) Biochemistry 37:1868-79. Catalytic activity towards AMC-Ub increases 35 fold compared to USP1 enzyme alone. Initial enzyme assay development was performed in 96-well plates with 100 μl reaction volume containing 20 mM HEPES-KOH, 0.1 mg/ml ovalbumin (Sigma), 0.5 mM EDTA, and 10 mM DTT. 2.5 nM USP1/UAF1 enzyme complex was mixed with the reaction buffer, incubated at 37° C. for 10 minutes and then 0.3 μM AMC-Ub was added. Fluorescence was measured using a Fluostar Galaxy Fluorometer (BMG Labtech Inc.).
Once the preliminary enzyme assay was established in 96-well format, it was optimized for 384 wells for high throughput screening (HTS) of inhibitors. The major points to be considered were the volume of the reaction and amount of AMC-Ub substrate to be used in the assay. Since the price of AMC-Ub is very high, in order to make it a feasible assay for HTS, lowest workable amount of the AMC conjugate was used. Reaction volume was minimized to 30 μl in order to meet the recommendation of ICCB-L screening facility (Harvard). In the preliminary optimization experiment, a series of pilot experiments were performed with varying AMC-Ub concentrations (0.025 μM to 0.2 μM), along with the varying concentration of USP1/UAF1 complex (0.2 nM to 3.2 nM). […] After incubating the enzyme and buffer at 37° C. for 10 minutes, AMC-Ub was added and fluorescence emission at 460 nm (λex=380 nm) was measured in an automated plate reader Envision 2 (Perkin Elmer). Fluorescence reading for all time points up to one hour was noted and the data for different AMC-Ub concentration range was plotted with each USP1/UAF1 enzyme complex concentration. […]

T1 sequence (O94782 whole entry G670A/G671A): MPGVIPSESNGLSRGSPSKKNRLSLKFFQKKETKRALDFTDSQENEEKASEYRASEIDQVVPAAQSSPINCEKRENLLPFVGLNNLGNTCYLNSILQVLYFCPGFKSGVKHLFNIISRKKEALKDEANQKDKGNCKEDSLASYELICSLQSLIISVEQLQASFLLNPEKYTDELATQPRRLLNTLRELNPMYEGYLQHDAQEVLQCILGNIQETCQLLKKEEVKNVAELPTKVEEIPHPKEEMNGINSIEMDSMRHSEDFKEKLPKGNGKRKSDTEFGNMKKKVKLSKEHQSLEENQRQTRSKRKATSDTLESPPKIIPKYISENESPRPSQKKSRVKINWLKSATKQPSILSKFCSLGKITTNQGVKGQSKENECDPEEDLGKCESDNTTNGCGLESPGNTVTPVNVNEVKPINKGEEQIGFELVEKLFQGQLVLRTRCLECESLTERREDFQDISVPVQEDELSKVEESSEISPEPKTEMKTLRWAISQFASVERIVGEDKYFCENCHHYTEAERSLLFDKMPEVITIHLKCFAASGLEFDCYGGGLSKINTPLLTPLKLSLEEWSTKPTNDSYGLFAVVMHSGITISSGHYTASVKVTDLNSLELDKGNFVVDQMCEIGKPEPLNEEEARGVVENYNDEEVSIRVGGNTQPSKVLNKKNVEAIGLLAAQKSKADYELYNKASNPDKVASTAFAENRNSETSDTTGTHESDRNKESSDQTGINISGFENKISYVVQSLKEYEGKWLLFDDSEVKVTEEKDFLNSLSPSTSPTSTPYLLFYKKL
T1 sequence (Q8TAF3 whole entry partner): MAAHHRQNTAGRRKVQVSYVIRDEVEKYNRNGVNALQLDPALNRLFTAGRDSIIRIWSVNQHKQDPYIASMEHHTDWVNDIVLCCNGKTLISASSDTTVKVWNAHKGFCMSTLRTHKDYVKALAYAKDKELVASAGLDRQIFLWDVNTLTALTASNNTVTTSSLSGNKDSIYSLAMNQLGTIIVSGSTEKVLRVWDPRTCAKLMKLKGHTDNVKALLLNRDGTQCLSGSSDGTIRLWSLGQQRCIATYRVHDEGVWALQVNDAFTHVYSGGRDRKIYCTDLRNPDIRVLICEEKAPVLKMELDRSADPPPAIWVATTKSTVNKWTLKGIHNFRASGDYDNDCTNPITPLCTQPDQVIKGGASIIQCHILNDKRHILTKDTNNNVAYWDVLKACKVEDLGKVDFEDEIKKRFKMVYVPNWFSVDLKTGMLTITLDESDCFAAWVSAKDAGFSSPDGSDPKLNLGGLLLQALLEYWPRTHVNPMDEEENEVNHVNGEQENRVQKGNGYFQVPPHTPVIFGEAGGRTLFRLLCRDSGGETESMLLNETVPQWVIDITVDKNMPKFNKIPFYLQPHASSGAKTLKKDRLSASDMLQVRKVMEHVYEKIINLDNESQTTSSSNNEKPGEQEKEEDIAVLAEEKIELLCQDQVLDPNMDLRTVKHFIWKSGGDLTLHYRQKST

**Q.** How did the IC50 (USP1/UAF1 complex [1]; 4 hour preincubation, AMC-Ub in vitro enzyme assay, read-out: IC50) turn out when `O=C1c2ccccc2C(=O)c2oc(-c3ccc(F)cc3)nc21` [Formula IV (527)] was run?
**A.** 134 nM

**Q.** And the “inhibition of DUB activity (fluorescence) with pretreatment time” value (USP1/UAF1 complex [1]; single dose 1 uM, variable time periods, FIG. 5A)?
**A.** serial increase in inhibition of DUB activity

**Q.** And the “DUB activity with increasing dose” value (USP1/UAF1 complex [1]; treatment for 2 h, 0.5 to 2 μM, FIG. 5B)?
**A.** dose-dependent decrease in DUB activity

**Q.** And the IC50 (USP1/UAF1 complex [1]; ubiquitin-AMC substrate, FIG. 5C, read-out: IC50 of C527 for the USP1/UAF1 complex)?
**A.** 880 ± 30 nM

**Q.** What about the “identified as inhibitor of USP1 in initial in vitro screening” value (USP1/UAF1 complex [2]) of the same compound?
**A.** inhibitors of USP1
